Values of other authors, collected in article PMC8909834, “An Orally Bioavailable and Highly Efficacious Inhibitor of CDK9/FLT3 for the Treatment of Acute Myeloid Leukemia” (Cancers, 2022).

Tested on: CDK9
Details: cited from earlier work; for selectivity over other CDKs: CDK9 vs other CDKs

Compound	selectivity over other CDKs	IC50
CC(=O)N[C@@H]1CCC[C@H](C(=O)Nc2cc(-c3cnn4c3CC(C)(C)C4)c(Cl)cn2)C1 [ADZ4573]	> 10 fold	< 4 nM
